# Assay results: BindingDB's records for doi:10.1021/np010194b (Kyungpook National University, 2002)
# Where a SMILES comes first, the peptide text is derived from it. Bridges are numbered along the chain shown (N, C = ends).
# Molecular target: Prolyl endopeptidase (Flavobacterium meningosepticum)
# Test: Inhibition of Flavobacterium meningosepticum PEP
compound,measurement,value
CC[C@H](C)[C@H](NC(=O)[C@H](Cc1ccccc1)NC(=O)[C@@H](NC(=O)[C@H](Cc1cnc[nH]1)NC(=O)CNC(=O)CNC(=O)[C@H](Cc1ccccc1)NC(=O)[C@H](CC(C)C)NC(=O)[C@@H]1CC(=O)NCC(=O)N[C@@H](Cc2ccc(O)cc2)C(=O)N2CCC[C@H]2C(=O)N[C@@H](Cc2c[nH]c3ccccc23)C(=O)N[C@@H](Cc2c[nH]c3ccccc23)C(=O)N[C@@H](CC(=O)O)C(=O)N[C@@H](Cc2ccc(O)cc2)C(=O)N[C@@H](CCCNC(=N)N)C(=O)N1)[C@@H](C)O)C(=O)N[C@@H](CO)C(=O)N1CCC[C@H]1C(=O)O [propeptin] (GYPWWDYRDLFGGHTFISP-OH; lactam N-9),IC50,1100 nM
